# In US12378224B2 (Dong-A Socio Holdings Co., Ltd., priority 2016, dated 2025):
# Biological target: human MER (528-end) (Homo sapiens (Human), UniProt Q12866)
# Test: HTRF Kinase Activity Biochemical Assay (KinEASE-TK)
# Details: 10 uM ATP
# In short: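 Recombinant human MER (528-end) phosphorylated biotin-TK peptide substrate, 1 h at room temperature. Reaction stopped with detection buffer containing 0.375 nM Eu3+-cryptate anti-TK antibody and 0.062 uM streptavidin-XL665, 1 h further. Activity taken as HTRF ratio 665/620 nm ×10,000, 340 nm excitation.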
# Chain of human MER (528-end) (Q12866 528-999 limits assumed): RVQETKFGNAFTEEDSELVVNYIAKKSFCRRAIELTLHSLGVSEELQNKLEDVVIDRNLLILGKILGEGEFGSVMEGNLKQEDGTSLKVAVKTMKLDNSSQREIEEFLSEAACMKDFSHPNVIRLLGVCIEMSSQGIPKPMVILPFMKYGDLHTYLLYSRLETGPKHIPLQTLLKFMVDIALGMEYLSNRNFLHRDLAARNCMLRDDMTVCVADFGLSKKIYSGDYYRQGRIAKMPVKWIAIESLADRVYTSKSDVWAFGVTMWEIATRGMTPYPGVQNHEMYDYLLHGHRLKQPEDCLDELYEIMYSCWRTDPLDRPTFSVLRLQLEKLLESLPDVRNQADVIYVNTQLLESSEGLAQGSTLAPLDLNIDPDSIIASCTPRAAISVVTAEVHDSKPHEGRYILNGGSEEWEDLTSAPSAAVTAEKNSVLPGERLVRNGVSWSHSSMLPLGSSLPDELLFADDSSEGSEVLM
row,Compound,IC50
1,"Nc1ncc(-c2cnn(C3CCNCC3)c2)cc1C(=O)N[C@@H]1CCN(C(=O)c2ccc(-c3ccccc3)cc2)C1 [Example 562, (R)—N-(1-([1,1′-biphenyl]-4-carbonyl)pyrrolidin-3-yl)-2-amino-5-(1-(piperidin-4-yl)-1H-pyrazol-4-yl)nicotinamide]",10 to 100 nM
2,"CN1CCC(n2cc(-c3cnc(N)c(C(=O)N[C@@H]4CCN(C(=O)c5ccc(-c6ccccc6)cc5)C4)c3)cn2)CC1 [Example 563, (R)—N-(1-([1,1′-biphenyl]-4-carbonyl)pyrrolidin-3-yl)-2-amino-5-(1-(1-methylpiperidin-4-yl)-1H-pyrazol-4-yl)nicotinamide]",10 to 100 nM
3,"Nc1ncc(-c2ccc(CO)cc2)cc1C(=O)N[C@@H]1CCN(C(=O)c2ccc(-c3ccccc3)cc2)C1 [Example 568, (R)—N-(1-([1,1′-biphenyl]-4-carbonyl)pyrrolidin-3-yl)-2-amino-5-(4-(hydroxymethyl)phenyl)nicotinamide]",100 to 1000 nM
4,"COCCn1cc(-c2cnc(N)c(C(=O)N[C@@H]3CCN(C(=O)c4ccc(-c5ccccc5Cl)cc4)C3)c2)cn1 [Example 573, (R)-2-amino-N-(1-(2′-chloro-[1,1′-biphenyl]-4-carbonyl)pyrrolidin-3-yl)-5-(1-(2-methoxyethyl)-1H-pyrazol-4-yl)nicotinamide]",10 to 100 nM
5,"Nc1ncc(-c2ccc(S(N)(=O)=O)cc2)cc1C(=O)N[C@@H]1CCN(C(=O)c2ccc(-c3ccccc3Cl)cc2)C1 [Example 575, (R)-2-amino-N-(1-(2′-chloro-[1,1′-biphenyl]-4-carbonyl)pyrrolidin-3-yl)-5-(4-sulfamoylphenyl)nicotinamide]",10 to 100 nM
6,"CS(=O)(=O)Nc1ccc(-c2cnc(N)c(C(=O)N[C@@H]3CCN(C(=O)c4ccc(-c5ccccc5Cl)cc4)C3)c2)cc1 [Example 576, (R)-2-amino-N-(1-(2′-chloro-[1,1′-biphenyl]-4-carbonyl)pyrrolidin-3-yl)-5-(4-(methylsulfonamido)phenyl)nicotinamide]",100 to 1000 nM
7,"CC(C)(C)n1cc(-c2cnc(N)c(C(=O)N[C@@H]3CCN(C(=O)c4ccc(-c5ccccc5Cl)cc4)C3)c2)cn1 [Example 577, (R)-2-amino-5-(1-(tert-butyl)-1H-pyrazol-4-yl)-N-(1-(2′-chloro-[1,1′-biphenyl]-4-carbonyl)pyrrolidin-3-yl)nicotinamide]",10 to 100 nM
8,"Nc1ncc(Br)cc1C(=O)N[C@@H]1CCN(C(=O)c2ccc(-c3ccc(F)cc3Cl)cc2)C1 [Example 580, (R)-2-amino-5-bromo-N-(1-(2′-chloro-4′-fluoro-[1,1′-biphenyl]-4-carbonyl)pyrrolidin-3-yl)nicotinamide]",100 to 1000 nM
9,"CC(=O)Nc1ccc(-c2cnc(N)c(C(=O)N[C@@H]3CCN(C(=O)c4ccc(-c5ccc(F)cc5Cl)cc4)C3)c2)cn1 [Example 582, (R)-6′-acetamido-6-amino-N-(1-(2′-chloro-4′-fluoro-[1,1′-biphenyl]-4-carbonyl)pyrrolidin-3-yl)-[3,3′-bipyridine]-5-carboxamide]",100 to 1000 nM
10,"Nc1ncc(-c2cncc(C(=O)O)c2)cc1C(=O)N[C@@H]1CCN(C(=O)c2ccc(-c3ccc(F)cc3Cl)cc2)C1 [Example 587, (R)-6′-amino-5′-((1-(2′-chloro-4′-fluoro-[1,1′-biphenyl]-4-carbonyl)pyrrolidin-3-yl)carbamoyl)-[3,3′-bipyridine]-5-carboxylic acid]",100 to 1000 nM
11,"Nc1ncc(-c2ccc(C(=O)N3CCN(CCO)CC3)cc2)cc1C(=O)N[C@@H]1CCN(C(=O)c2ccc(-c3ccccc3Cl)cc2)C1 [Example 589, (R)-2-amino-N-(1-(2′-chloro-[1,1′-biphenyl]-4-carbonyl)pyrrolidin-3-yl)-5-(4-(4-(2-hydroxyethyl)piperazine-1-carbonyl)phenyl)nicotinamide]",10 to 100 nM
12,"CN(C(=O)c1cc(-c2cnn(C)c2)cnc1N)[C@@H]1CCN(Cc2ccccc2)C1 [Example 623, (R)-2-amino-N-(1-benzylpyrrolidin-3-yl)-N-methyl-5-(1-methyl-1H-pyrazol-4-yl)nicotinamide]",> 1000 nM
13,"CN(C(=O)N1CC[C@@H](NC(=O)c2cc(-c3cnn(C)c3)cnc2N)C1)c1ccccc1 [Example 625, (R)-2-amino-N-(1-(methyl(phenyl)carbamoyl)pyrrolidin-3-yl)-5-(1-methyl-1H-pyrazol-4-yl)nicotinamide]",> 1000 nM
14,"Nc1ncc(-c2cnn(C3CCNCC3)c2)cc1C(=O)N[C@@H]1CCN(C(CO)c2ccccc2)C1 (stereo partly drawn) [Example 629, 2-amino-N-((3R)-1-(2-hydroxy-1-phenylethyl)pyrrolidin-3-yl)-5-(1-(piperidin-4-yl)-1H-pyrazol-4-yl)nicotinamide]",> 1000 nM
15,"Nc1ncc(-c2cnn(C3CCNCC3)c2)cc1C(=O)N[C@@H]1CCN(Cc2ccnc(Cl)c2)C1 [Example 631, (R)-2-amino-N-(1-((2-chloropyridin-4-yl)methyl)pyrrolidin-3-yl)-5-(1-(piperidin-4-yl)-1H-pyrazol-4-yl)nicotinamide]",> 1000 nM
16,"CC(C)Cn1cc(-c2cnc(N)c(C(=O)N[C@@H]3CCN(Cc4ccccc4Cl)C3)c2)cn1 [Example 632, (R)-2-amino-N-(1-(2-chlorobenzyl)pyrrolidin-3-yl)-5-(1-isobutyl-1H-pyrazol-4-yl)nicotinamide]",100 to 1000 nM
17,"CN1CCN(Cc2ccc(C(=O)N3CC[C@@H](NC(=O)c4cc(-c5cnn(C)c5)cnc4N)C3)cc2)CC1 [Example 640, (R)-2-amino-5-(1-methyl-1H-pyrazol-4-yl)-N-(1-(4-((4-methylpiperazin-1-yl)methyl)benzoyl)pyrrolidin-3-yl)nicotinamide]",> 1000 nM
18,"Cn1cc(-c2cnc(N)c(C(=O)N[C@@H]3CCN(C(=O)c4ccc(CN5CCN(CCO)CC5)cc4)C3)c2)cn1 [Example 641, (R)-2-amino-N-(1-(4-((4-(2-hydroxyethyl)piperazin-1-yl)methyl)benzoyl)pyrrolidin-3-yl)-5-(1-methyl-1H-pyrazol-4-yl)nicotinamide]",> 1000 nM
19,"Cn1cc(-c2cnc(N)c(C(=O)N[C@@H]3CCN(C(=O)c4ccc(-c5ccc(N)cc5)cc4)C3)c2)cn1 [Example 662, (R)-2-amino-N-(1-(4′-amino-[1,1′-biphenyl]-4-carbonyl)pyrrolidin-3-yl)-5-(1-methyl-1H-pyrazol-4-yl)nicotinamide]",> 1000 nM
20,"Cn1cc(-c2cnc(N)c(C(=O)N[C@@H]3CCN(C(=O)c4ccc(-c5cc(F)cc(Cl)c5)cc4)C3)c2)cn1 [Example 663, (R)-2-amino-N-(1-(3′-chloro-5′-fluoro-[1,1′-biphenyl]-4-carbonyl)pyrrolidin-3-yl)-5-(1-methyl-1H-pyrazol-4-yl)nicotinamide]",10 to 100 nM
21,"Cn1cc(-c2cnc(N)c(C(=O)N[C@@H]3CCN(C(=O)c4ccc(-c5cc(Cl)c(F)c(Cl)c5)cc4)C3)c2)cn1 [Example 664, (R)-2-amino-N-(1-(3′,5′-dichloro-4′-fluoro-[1,1′-biphenyl]-4-carbonyl)pyrrolidin-3-yl)-5-(1-methyl-1H-pyrazol-4-yl)nicotinamide]",100 to 1000 nM
22,"Cn1cc(-c2cnc(N)c(C(=O)N[C@@H]3CCN(C(=O)c4ccc(-c5cc(F)ccc5Cl)cc4)C3)c2)cn1 [Example 667, (R)-2-amino-N-(1-(2′-chloro-5′-fluoro-[1,1′-biphenyl]-4-carbonyl)pyrrolidin-3-yl)-5-(1-methyl-1H-pyrazol-4-yl)nicotinamide]",10 to 100 nM
23,"Cn1cc(-c2cnc(N)c(C(=O)N[C@@H]3CCN(C(=O)c4cccc5c(Br)cccc45)C3)c2)cn1 [Example 669, (R)-2-amino-N-(1-(5-bromo-1-naphthoyl)pyrrolidin-3-yl)-5-(1-methyl-1H-pyrazol-4-yl)nicotinamide]",> 1000 nM
24,"CCc1cc(CO[C@H]2CN(C(=O)c3ccc(-c4ccccc4)cc3)C[C@@H]2NC(=O)c2cc(-c3cnn(C)c3)cnc2N)ccc1C [Example 674, N-((3S,4S)-1-([1,1′-biphenyl]-4-carbonyl)-4-((3-ethyl-4-methylbenzyl)oxy)pyrrolidin-3-yl)-2-amino-5-(1-methyl-1H-pyrazol-4-yl)nicotinamide]",> 1000 nM
25,"CCc1cc(CO[C@H]2CN(C(=O)c3cccc(-c4ccccc4)c3)C[C@@H]2NC(=O)c2cc(-c3cnn(C)c3)cnc2N)ccc1C [Example 675, N-((3S,4S)-1-([1,1′-biphenyl]-3-carbonyl)-4-((3-ethyl-4-methylbenzyl)oxy)pyrrolidin-3-yl)-2-amino-5-(1-methyl-1H-pyrazol-4-yl)nicotinamide]",> 1000 nM
26,"Cn1cc(-c2cnc(N)c(C(=O)N[C@@H]3CCN(C(=O)c4ccc(-c5ccc(CC#N)cc5)cc4)C3)c2)cn1 [Example 676, (R)-2-amino-N-(1-(4′-(cyanomethyl)-[1,1′-biphenyl]-4-carbonyl)pyrrolidin-3-yl)-5-(1-methyl-1H-pyrazol-4-yl)nicotinamide]",100 to 1000 nM
27,"Cn1cc(-c2cnc(N)c(C(=O)N[C@@H]3CCN(C(=O)c4ccc(-c5ccc(C(N)=O)c(F)c5)cc4)C3)c2)cn1 [Example 680, (R)-2-amino-N-(1-(4′-carbamoyl-3′-fluoro-[1,1′-biphenyl]-4-carbonyl)pyrrolidin-3-yl)-5-(1-methyl-1H-pyrazol-4-yl)nicotinamide]",100 to 1000 nM
28,"Cn1cc(-c2cnc(N)c(C(=O)N[C@H]3CN(C(=O)c4ccc(-c5ccc(F)cc5Cl)cc4)C[C@H]3F)c2)cn1 [Example 682, 2-amino-N-((3S,4R)-1-(2′-chloro-4′-fluoro-[1,1′-biphenyl]-4-carbonyl)-4-fluoropyrrolidin-3-yl)-5-(1-methyl-1H-pyrazol-4-yl)nicotinamide]",> 1000 nM
29,"COC(=O)[C@H]1C[C@@H](NC(=O)c2cc(-c3cnn(C)c3)cnc2N)CN1C(=O)c1ccc(-c2ccccc2)cc1 [Example 683, methyl (2R,4R)-1-([1,1′-biphenyl]-4-carbonyl)-4-(2-amino-5-(1-methyl-1H-pyrazol-4-yl)nicotinamido)pyrrolidine-2-carboxylate]",100 to 1000 nM
30,"COC(=O)[C@H]1C[C@@H](NC(=O)c2cc(-c3cnn(C)c3)cnc2N)CN1C(=O)c1cccc(-c2ccccc2)c1 [Example 684, Methyl (2R,4R)-1-([1,1′-biphenyl]-3-carbonyl)-4-(2-amino-5-(1-methyl-1H-pyrazol-4-yl)nicotinamido)pyrrolidine-2-carboxylate]",> 1000 nM
